IC50 data for one compound are collected here from article PMC5805707 (Scientific Reports, 2018).

This test has as its target T1, cytochrome bd (Mycobacterium tuberculosis, UniProt L7N662).
T1 construct: gene cydA; native complex in inverted membrane vesicles of strain mc^2 6020
Nature of the test: NADH-driven oxygen consumption of inverted membrane vesicles (Clark electrode); maximal inhibition […]. Type of test: biochemical.

T1 sequence (O06139 entry or part of it): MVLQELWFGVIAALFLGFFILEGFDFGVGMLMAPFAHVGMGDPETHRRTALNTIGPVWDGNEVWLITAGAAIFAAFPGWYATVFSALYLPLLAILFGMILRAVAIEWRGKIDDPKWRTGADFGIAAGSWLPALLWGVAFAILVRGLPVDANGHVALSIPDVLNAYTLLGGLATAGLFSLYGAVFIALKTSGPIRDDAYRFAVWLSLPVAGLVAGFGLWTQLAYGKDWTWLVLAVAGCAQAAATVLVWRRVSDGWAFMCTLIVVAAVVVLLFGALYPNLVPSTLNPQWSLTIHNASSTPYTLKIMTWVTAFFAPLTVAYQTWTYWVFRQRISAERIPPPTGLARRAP
T1 sequence (L7N662 entry or part of it): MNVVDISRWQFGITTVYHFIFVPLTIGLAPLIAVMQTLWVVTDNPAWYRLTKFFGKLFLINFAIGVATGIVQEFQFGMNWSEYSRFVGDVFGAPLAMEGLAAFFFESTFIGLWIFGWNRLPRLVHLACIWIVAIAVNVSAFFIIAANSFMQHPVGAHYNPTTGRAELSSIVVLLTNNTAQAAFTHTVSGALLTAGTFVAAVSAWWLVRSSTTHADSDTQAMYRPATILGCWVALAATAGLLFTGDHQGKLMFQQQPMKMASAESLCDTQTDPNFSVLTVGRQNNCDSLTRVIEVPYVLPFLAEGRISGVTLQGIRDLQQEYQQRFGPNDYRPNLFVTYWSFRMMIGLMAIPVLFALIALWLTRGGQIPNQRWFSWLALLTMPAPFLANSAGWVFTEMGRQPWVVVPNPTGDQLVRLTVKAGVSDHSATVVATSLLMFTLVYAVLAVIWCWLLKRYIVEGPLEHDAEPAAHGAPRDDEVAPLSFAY

The term IC50 denotes the concentration that inhibits the measured activity by half. In turn, `CC(C)=CCC/C(C)=C/CC/C(C)=C/Cc1c(C)[nH]c2ccccc2c1=O` [aurachin D] showed an IC50 of around 400 nM.
